The values that follow come from patent publication US20140148443A1, “Novel Imidazolines as dual inhibitors of MDM2 and MDMX” (priority 2012, published 2014).

One experiment addresses T1, GST-tagged MDMX (Homo sapiens, UniProt O15151).
T1 sequence (O15151 1-490): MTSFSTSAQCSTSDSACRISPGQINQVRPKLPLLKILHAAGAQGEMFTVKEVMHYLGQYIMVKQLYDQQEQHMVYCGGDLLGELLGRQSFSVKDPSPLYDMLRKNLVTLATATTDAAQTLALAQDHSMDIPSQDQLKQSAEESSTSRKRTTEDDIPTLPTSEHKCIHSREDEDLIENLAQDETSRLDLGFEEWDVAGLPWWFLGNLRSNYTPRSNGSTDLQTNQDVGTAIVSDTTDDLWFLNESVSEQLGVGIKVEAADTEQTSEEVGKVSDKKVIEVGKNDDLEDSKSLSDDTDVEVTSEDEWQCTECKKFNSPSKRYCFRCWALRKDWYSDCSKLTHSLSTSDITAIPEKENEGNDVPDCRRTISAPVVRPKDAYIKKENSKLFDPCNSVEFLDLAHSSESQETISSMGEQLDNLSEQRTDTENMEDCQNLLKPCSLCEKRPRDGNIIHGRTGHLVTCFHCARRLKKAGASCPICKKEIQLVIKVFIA
The experiment can be described thus: HTRF binding assay of GST-tagged MDMX to p53 peptide. In general terms: In TR-FRET formats the signal depends on donor and acceptor labels being close together.

Experiment [1] deals with recombinant GST-tagged MDM2 (Homo sapiens, UniProt Q00987). In words: HTRF assay of interaction between p53 peptide and GST-tagged MDM2. Particulars: inhibition of GST-MDM2 (160 ng/ml) binding to biotinylated p53-peptide. As for the experimental part:
The ability of a test compound to inhibit the interaction between p53 and MDM2 protein was measured by an HTRF (homogeneous time-resolved fluorescence) assay in which recombinant GST-tagged MDM2 binds to a peptide that resembles the MDM2-interacting region of p53 Aca-[…]-OH hereinafter p53-peptide). Binding of GST-MDM2 protein and p53-peptide (biotinylated on its N-terminal end) is registered by the FRET (fluorescence resonance energy transfer) between Europium (Eu)-labeled anti-GST antibody and streptavidin-conjugated Allophycocyanin (APC).
The test was performed in black flat-bottom 384-well plates (Costar) in a total volume of 40 uL containing: 90 nM biotinylated peptide, 160 ng/ml GST-MDM2, 20 nM streptavidin-APC (PerkinElmerWallac), 2 nM Eu-labeled anti-GST-antibody (PerkinElmerWallac), 0.02% bovine serum albumin (BSA), 1 mM dithiothreitol (DTT) and 20 mM […] (TBS) buffer as follows: add 10 uL of GST-MDM2 (640 ng/ml working solution) in reaction buffer to each well. Add 10 uL diluted compounds (1:5 dilution in reaction buffer) to each well, mix by shaking. Add 20 uL biotinylated p53 peptide (180 nM working solution) in reaction buffer to each well and mix on shaker. Incubate at 37° C. for 1 h. Add […] streptavidin-APC and Eu-anti-GST antibody mixture (6 nM Eu-anti-GST and 60 nM streptavidin-APC working solution) in TBS buffer with 0.02% BSA, shake at room temperature for 30 minutes and read using a TRF-capable plate reader at 665 and 615 nm (Victor 5, Perkin ElmerWallac). If not specified, the reagents were purchased from Sigma Chemical Co.

Sequence of recombinant GST-tagged MDM2 (Q00987 whole entry): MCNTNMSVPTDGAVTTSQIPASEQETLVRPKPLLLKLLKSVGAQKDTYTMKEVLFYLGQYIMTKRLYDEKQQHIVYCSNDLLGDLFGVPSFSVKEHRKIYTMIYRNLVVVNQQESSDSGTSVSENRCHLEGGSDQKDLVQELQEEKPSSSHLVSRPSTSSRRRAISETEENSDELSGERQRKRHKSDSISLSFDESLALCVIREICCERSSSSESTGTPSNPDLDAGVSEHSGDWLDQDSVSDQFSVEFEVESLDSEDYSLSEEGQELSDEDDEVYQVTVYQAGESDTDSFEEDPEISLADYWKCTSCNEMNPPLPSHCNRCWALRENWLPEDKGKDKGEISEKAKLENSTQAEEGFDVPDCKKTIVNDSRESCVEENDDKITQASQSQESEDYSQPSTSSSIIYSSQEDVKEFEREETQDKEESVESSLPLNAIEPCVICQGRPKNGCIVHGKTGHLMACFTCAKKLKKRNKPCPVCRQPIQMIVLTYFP

The term IC50 denotes the concentration needed to halve the response being measured. For `CCOc1cc(Cl)c(S(=O)(=O)NC(C)(C)C)cc1C1=N[C@@](C)(c2ccc(Cl)cc2)[C@@](C)(c2ccc(Cl)cc2)N1C(=O)N1CCN(CC(=O)NCC2CCCO2)CC1` (mixture of isomers) [Example 48, 2-{4-[(4S,5R)-2-(5-tert-Butylsulfamoyl-4-chloro-2-ethoxy-phenyl)-4,5-bis-(4-chloro-phenyl)-4,5-dimethyl-4,5-dihydro-imidazole-1-carbonyl]-piperazin-1-yl}-N-(tetrahydro-furan-2-ylmethyl)-acetamide], the 50% inhibitory concentration (IC50) at GST-tagged MDMX stood at 1330 nM; in experiment [1], 11.7 nM.

On to `CCOc1cc(Cl)c(S(C)(=O)=O)cc1C1=N[C@@](C)(c2ccc(Cl)cc2)[C@@](C)(c2ccc(Cl)cc2)N1C(=O)N1CCC(CC(N)=O)CC1` (racemic) [Example 5, 2-{1-[(4S,5R)-2-(4-Chloro-2-ethoxy-5-methanesulfonyl-phenyl)-4,5-bis-(4-chloro-phenyl)-4,5-dimethyl-4,5-dihydro-imidazole-1-carbonyl]-piperidin-4-yl}-acetamide], for which the concentration for half-maximal inhibition (IC50) at GST-tagged MDMX came to 3660 nM; in experiment [1], 15.3 nM.

`CCOc1cc(Cl)c(S(C)(=O)=O)cc1C1=N[C@@](C)(c2ccc(Cl)cc2)[C@@](C)(c2ccc(Cl)cc2)N1C(=O)N1CCNC(=O)C1` [Example 2, 4-[(4S,5R)-2-(4-Chloro-2-ethoxy-5-methanesulfonyl-phenyl)-4,5-bis-(4-chloro-phenyl)-4,5-dimethyl-4,5-dihydro-imidazole-1-carbonyl]-piperazin-2-one]: the 50% inhibitory concentration (IC50) at GST-tagged MDMX came to 1080 nM; in experiment [1], 5.7 nM.

Consider `CCOc1cc(Cl)c(S(C)(=O)=O)cc1C1=N[C@@](C)(c2ccc(Cl)cc2)[C@@](C)(c2ccc(Cl)cc2)N1C(=O)N1CCN(C[C@H](O)CO)CC1` [Example 3, [(4S,5R)-2-(4-Chloro-2-ethoxy-5-methanesulfonyl-phenyl)-4,5-bis-(4-chloro-phenyl)-4,5-dimethyl-4,5-dihydro-imidazol-1-yl]-[4-((S)-2,3-dihydroxy-propyl)-piperazin-1-yl]-methanone], for which the figures for the IC50 (at GST-tagged MDMX; in experiment [1]) were 1140 nM and 5.4 nM, respectively.

In the case of `CCOc1cc(Cl)c(S(C)(=O)=O)cc1C1=N[C@@](C)(c2ccc(Cl)cc2)[C@@](C)(c2ccc(Cl)cc2)N1C(=O)N1CCN(CC[C@H](O)CO)C(=O)C1` [Example 4, 4-[(4S,5R)-2-(4-Chloro-2-ethoxy-5-methanesulfonyl-phenyl)-4,5-bis-(4-chloro-phenyl)-4,5-dimethyl-4,5-dihydro-imidazole-1-carbonyl]-1-((S)-3,4-dihydroxy-butyl)-piperazin-2-one], the IC50 on GST-tagged MDMX came to 1730 nM; in experiment [1] it was 5.4 nM.

Consider `CCOc1cc(Cl)c(S(C)(=O)=O)cc1C1=N[C@@](C)(c2ccc(Cl)cc2)[C@@](C)(c2ccc(Cl)cc2)N1C(=O)N1CCN(CC(N)=O)CC1` [Example 6, 2-{4-[(4S,5R)-2-(4-Chloro-2-ethoxy-5-methanesulfonyl-phenyl)-4,5-bis-(4-chloro-phenyl)-4,5-dimethyl-4,5-dihydro-imidazole-1-carbonyl]-piperazin-1-yl}-acetamide], for which the figures for the IC50 (at GST-tagged MDMX; in experiment [1]) were 1210 nM and 6.6 nM, respectively.

Regarding `CCOc1cc(Cl)c(S(C)(=O)=O)cc1C1=N[C@@](C)(c2ccc(Cl)cc2)[C@@](C)(c2ccc(Cl)cc2)N1C(=O)N1CCN(S(C)(=O)=O)CC1` [Example 7, [(4S,5R)-2-(4-Chloro-2-ethoxy-5-methanesulfonyl-phenyl)-4,5-bis-(4-chloro-phenyl)-4,5-dimethyl-4,5-dihydro-imidazol-1-yl]-(4-methanesulfonyl-piperazin-1-yl)-methanone], the IC50 at GST-tagged MDMX came to 2490 nM; in experiment [1] it was 6.3 nM.

Consider `CCOc1cc(Cl)c(S(C)(=O)=O)cc1C1=N[C@@](C)(c2ccc(Cl)cc2)[C@@](C)(c2ccc(Cl)cc2)N1C(=O)N1CCC(N)CC1` [Example 8, (4-Amino-piperidin-1-yl)-[(4S,5R)-2-(4-chloro-2-ethoxy-5-methanesulfonyl-phenyl)-4,5-bis-(4-chloro-phenyl)-4,5-dimethyl-4,5-dihydro-imidazol-1-yl]-methanone], for which the results for the concentration for half-maximal inhibition (IC50) (on GST-tagged MDMX; in experiment [1]) were 1070 nM and 4.4 nM, respectively.

Regarding `CCOc1cc(Cl)c(S(C)(=O)=O)cc1C1=N[C@@](C)(c2ccc(Cl)cc2)[C@@](C)(c2ccc(Cl)cc2)N1C(=O)N1CCC(CS(C)(=O)=O)CC1` [Example 9, [(4S,5R)-2-(4-Chloro-2-ethoxy-5-methanesulfonyl-phenyl)-4,5-bis-(4-chloro-phenyl)-4,5-dimethyl-4,5-dihydro-imidazol-1-yl]-(4-methanesulfonylmethyl-piperidin-1-yl)-methanone], the figures for the half-maximal inhibitory concentration (IC50) (at GST-tagged MDMX; in experiment [1]) were 1700 nM and 5.8 nM, respectively.

With `CCNC(=O)NC1CCN(C(=O)N2C(c3cc(S(C)(=O)=O)c(Cl)cc3OCC)=N[C@@](C)(c3ccc(Cl)cc3)[C@@]2(C)c2ccc(Cl)cc2)CC1` [Example 10, 1-{1-[(4S,5R)-2-(4-Chloro-2-ethoxy-5-methanesulfonyl-phenyl)-4,5-bis-(4-chloro-phenyl)-4,5-dimethyl-4,5-dihydro-imidazole-1-carbonyl]-piperidin-4-yl}-3-ethyl-urea], the IC50 at GST-tagged MDMX was found to be 974 nM; in experiment [1], 4.2 nM.

On to `CCOc1cc(Cl)c(S(C)(=O)=O)cc1C1=N[C@@](C)(c2ccc(Cl)cc2)[C@@](C)(c2ccc(Cl)cc2)N1C(=O)N1CCC(NC(=O)NC(C)C)CC1` [Example 11, 1-{1-[(4S,5R)-2-(4-Chloro-2-ethoxy-5-methanesulfonyl-phenyl)-4,5-bis-(4-chloro-phenyl)-4,5-dimethyl-4,5-dihydro-imidazole-1-carbonyl]-piperidin-4-yl}-3-isopropyl-urea], for which the values for the 50% inhibitory concentration (IC50) (on GST-tagged MDMX; in experiment [1]) were 1270 nM and 4.5 nM, respectively.

As to `CCOc1cc(Cl)c(S(=O)(=O)CC)cc1C1=N[C@@](C)(c2ccc(Cl)cc2)[C@@](C)(c2ccc(Cl)cc2)N1C(=O)N1CCN(CCCS(C)(=O)=O)CC1` [Example 12, [(4S,5R)-2-(4-Chloro-5-ethanesulfonyl-2-ethoxy-phenyl)-4,5-bis-(4-chloro-phenyl)-4,5-dimethyl-4,5-dihydro-imidazol-1-yl]-[4-(3-methanesulfonyl-propyl)-piperazin-1-yl]-methanone], the concentration for half-maximal inhibition (IC50) on GST-tagged MDMX amounted to 989 nM; in experiment [1] it was 5.5 nM.

Turning to `CCOc1cc(Cl)c(S(C)(=O)=O)cc1C1=N[C@@](C)(c2ccc(Cl)cc2)[C@@](C)(c2ccc(Cl)cc2)N1C(=O)N1CCC(CCS(C)(=O)=O)CC1` [Example 13, [(4S,5R)-2-(4-Chloro-2-ethoxy-5-methanesulfonyl-phenyl)-4,5-bis-(4-chloro-phenyl)-4,5-dimethyl-4,5-dihydro-imidazol-1-yl]-[4-(2-methanesulfonyl-ethyl)-piperidin-1-yl]-methanone], the results for the IC50 (on GST-tagged MDMX; in experiment [1]) were 1370 nM and 6.1 nM, respectively.

For `CCOc1cc(Cl)c(S(C)(=O)=O)cc1C1=N[C@@](C)(c2ccc(Cl)cc2)[C@@](C)(c2ccc(Cl)cc2)N1C(=O)N1CCN(CCCS(=O)(=O)CC)CC1` [Example 14, [(4S,5R)-2-(4-Chloro-2-ethoxy-5-methanesulfonyl-phenyl)-4,5-bis-(4-chloro-phenyl)-4,5-dimethyl-4,5-dihydro-imidazol-1-yl]-[4-(3-ethanesulfonyl-propyl)-piperazin-1-yl]-methanone], the IC50 at GST-tagged MDMX was found to be 1460 nM; in experiment [1] it was 4.7 nM.
